Measured values: patent EP3685668B1, “COMPOSITION COMPRISING ACIBENZOLAR-S-METHYL AS EFFECTIVE INGREDIENT FOR CONTROLLING BURSAPHELENCHUS XYLOPHILUS DISEASE AND METHOD FOR CONTROLLING BURSAPHELENCHUS XYLOPHILUS USING SAME” (Industry Foundation of Chonnam National University, priority 2017, dated 2019)

How the values were obtained:
[1] = tested on: Bursaphelenchus xylophilus; assay: Control efficacy against pine wilt disease by trunk injection, foliar spraying or soil drenching, greenhouse, red pine trees; type: in vivo; conditions: red pine tree, Trunk injection, 20,000 µg/mℓ, observed for 80 days
[2] = tested on: Bursaphelenchus xylophilus; assay: In vitro nematicidal activity, 96-well microplate; conditions: after 3 days
Method: To test the nematicidal activity of acibenzolar-S-methyl, a suspension of Bursaphelenchus xylophilus was diluted in a 96-well microplate to have 50 worms/99 µℓ in each well and used for the treatment. […] Each treatment was repeated 3 times, and "A Pharm" (emamectin benzoate, 2.15%), which is a chemical pesticide, was used as a control group. After the treatment, the 96-well plate was kept in a plastic box having water-soaked wipes spread on the bottom to maintain 100% humidity, and, after covering the box with black cloth, the box was stored in a dark state with blockage of light. The observation was made after 3 days. […] [Table 2] Nematicidal activity of acibenzolar-S-methyl against Bursaphelenchus xylophilus

[3] = tested on: Bursaphelenchus xylophilus; assay: Control efficacy against pine wilt disease by trunk injection, foliar spraying or soil drenching, greenhouse, red pine trees; type: in vivo; conditions: red pine tree, observed for 80 days
Method: The control efficacy of acibenzolar-S-methyl, which shown to have the highest activity in Example 1, was determined by three different treatment methods, i.e., trunk injection, foliar spraying, and soil drenching. For in vivo pathogenesis test, 2-year old young red pine trees (diameter of 5.5 mm or so, and height of about 35 mm) were used like Example 2.
For the trunk injection, a borehole was created at an angle of 45° by using an electric drill with thickness of 1.5 mm on a pine stem part that is 5 to 10 cm above the soil surface, a tip (200 µℓ) was inserted to the hole, and the working solution of chemicals was injected in an amount of 100 µℓ per pine tree after dissolving acibenzolar-S-methyl at concentration of 0.2 or 10 mg/mℓ in an aqueous solution containing 10% acetone and 10% methanol. After the treatment, the end part of the tip was sealed with parafilm, and a small hole was created thereon as an airflow hole. For the foliar spraying, a pre-treatment with Tween 20 (250 µg/mℓ) was carried out at 5 mℓ per pine tree to help the adsorption of the chemical on pine leaves, followed by drying for 2 hours. After drying, acibenzolar-S-methyl was dissolved at concentration of 1.6 mg/mℓ in an aqueous solution containing 10% acetone and Tween 20 (250 µg/mℓ) and the dissolved solution was filled in microsprayer and was applied 5 mℓ per pine tree by foliar spraying. For the soil drenching, acibenzolar-S-methyl was dissolved at concentration level of 0.2 mg/mℓ in an aqueous solution containing 10% acetone and Tween 20 (250 µg/mℓ), and this solution was used for soil drenching in a pot with planted pine tree, 40 mℓ per pine tree. […] [Table 3] The control efficacy of acibenzolar-S-methyl against pine wilt disease by various treatment methods

[4] = tested on: Bursaphelenchus xylophilus; assay: Occurrence of pine wilt disease after trunk injection of induced resistance candidate materials, in vivo test in young red pine trees; conditions: red pine tree (Pinus densiflora), trunk injection 100 µℓ per tree, 30 days after inoculation
Method: By using the 15 types of an induced resistance elicitors which have been known to induce the plant resistance against various diseases as candidates, their controlling effect against pine wilt disease was examined. The control efficacy of candidates against pine wilt disease was analyzed according to an in vivo test using red pine tree (Pinus densiflora) which was 2-year old young pine trees (diameter of 5.5 mm or so, and height of about 35 mm).
As a candidate group of an induced resistance material, two kinds of acibenzolar-S-methyl (ASM), TDL (Tiadinil), ITL (Isotianil), PBZ (Probenzole), AZO (Azoxystrobin), VMA (Validamycin A), MeJA (Methyl jasmonate), BABA (DL-3-aminobutyric acid), 2,3-BDO (2,3-Butanediol), SA (salicyclic acid), GABA (r-Aminobutyric acid), glucan (Glucan), ER (Ergosterol), and AZA (Azelaic acid) were used. Only the use of acibenzolar-S-methyl is according to the invention. Injection of the chemicals was carried out by trunk injection method, i.e., at an angle of 45°, a borehole was created by using an electric drill with thickness of 1.5 mm on a pine stem part that is 5 to 10 cm above the soil surface, a tip (200 µℓ) was inserted to the hole, and, after dissolving the candidate material at concentration level of 200, 20, or 2 µg/mℓ in each solvent, the solution was injected in an amount of 100 µℓ per pine tree. After the injection of the chemical agent, the end part of the tip was sealed with parafilm.
The pine tree wilt nematodes (Bursaphelenchus xylophilus, National Institute of Forest Science (NIFoS), South Korea) was incubated at 25°C by feeding them with Botrytis cinerea, which have been cultured on a potato dextrose agar (PDA) medium, and after one week incubation, they were collected by Baermann funnel method and were adjusted to the level of 20,000 worms/mℓ by examining the number of the worms under an optical microscope. One week after the chemical treatment, the inoculation of the pine tree wilt nematodes was carried out by tree barking inoculation of 100 µℓ, i.e., 2,000 worms, per tree, and the result was determined 30 days after the inoculation. […] [Table 1] Occurrence rate of pine wilt disease in candidate group of induced resistance materials

[5] = Foliar spraying, 1,600 µg/mℓ, 5 mℓ per tree
[6] = Soil drenching, 200 µg/mℓ, 40 mℓ per tree

Row | Compound | Control value (%) [1] [%] | Disease occurrence rate (%) [1] [%] | Nematicidal rate (%) ([2]; 0.11 µg/mℓ) | Nematicidal rate (%) ([2]; 0.33 µg/mℓ) | Nematicidal rate (%) ([2]; 1 µg/mℓ) | Control value (%) [3, 5] [%] | Disease occurrence rate (%) [3, 5] [%] | Control value (%) ([3]; Foliar spraying, 1,600 µg/mℓ, 5 mℓ per tree, listed as emamectin benzoate) | Control value (%) [3, 6] [%] | Disease occurrence rate (%) [3, 6] [%] | Control value (%) ([3]; Soil drenching, 200 µg/mℓ, 40 mℓ per tree, listed as emamectin benzoate) | Control value (%) ([3]; Trunk injection, 200 µg/mℓ) | Disease occurrence rate (%) ([3]; Trunk injection, 200 µg/mℓ) | Control value (%) ([3]; Trunk injection, 200 µg/mℓ, listed as emamectin benzoate) | Occurrence rate of pine wilt disease: Number of pine trees showing wilt symptoms / Number of pine trees used for the test ([4]; 2 µg/mℓ) | Occurrence rate of pine wilt disease: Number of pine trees showing wilt symptoms / Number of pine trees used for the test ([4]; 20 µg/mℓ) | Occurrence rate of pine wilt disease: Number of pine trees showing wilt symptoms / Number of pine trees used for the test ([4]; 200 µg/mℓ)
1 | emamectin benzoate | 100 | 0 | 98.77 | 100 | 100 | 10 | 64 | no control activity | 1 | 70 | no control activity | 7 | 66 | not shown at all |  |  | 
2 | O=C(O)c1ccccc1O [SA, salicyclic acid] |  |  |  |  |  |  |  |  |  |  |  |  |  |  | 2/3 | 1/3 | 0/3
